Values of other authors in patent publication US11564888B2, “Extended release compositions comprising trihexyphenidyl” (KASHIV SPECIALTY PHARMACEUTICALS, LLC, priority 2018, dated 2023).

Conditions: in vivo

In the case of OC(CCN1CCCCC1)(c1ccccc1)C1CCCCC1 (stereo not drawn) [trihexyphenidyl, α-cyclohexyl-α-phenyl-1-piperidinepropanol], the plasma half-life is listed as “about 3.7 hours”.
